Experimental data reported in the supplement of paper PMC10307832.

Columns and labels:
Test in all cases: relative viability (nuclei count vs DMSO), 5 days (fraction); higher = more cells survive
ABC-1 = system: ABC-1
Method in brief: (§1)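 Lung cancer cell lines were pin-tool dosed in 1536-well plates on the day after seeding, with either a lone drug or a fixed anchor-drug dose plus five library-drug doses (not always all listed) in √10 steps. Nuclei were counted on 4× images after 5 days. Relative viability is the ratio of treated-well to vehicle-well nuclei counts, with each value a median of duplicate plates.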

COR-L23 = system: COR-L23
Method in brief: as §1

H3255 = system: H3255
Method in brief: as §1

HCC-15 = system: HCC-15
Method in brief: as §1

HCC-366 = system: HCC-366
Method in brief: as §1

HCC-827 = system: HCC-827
Method in brief: as §1

LC-2-ad = system: LC-2-ad
Method in brief: as §1

LXF-289 = system: LXF-289
Method in brief: as §1

NCI-H1437 = system: NCI-H1437
Method in brief: as §1

NCI-H1666 = system: NCI-H1666
Method in brief: as §1

NCI-H1975 = system: NCI-H1975
Method in brief: as §1

NCI-H2009 = system: NCI-H2009
Method in brief: as §1

NCI-H2085 = system: NCI-H2085
Method in brief: as §1

NCI-H2087 = system: NCI-H2087
Method in brief: as §1

NCI-H2228 = system: NCI-H2228
Method in brief: as §1

NCI-H23 = system: NCI-H23
Method in brief: as §1

NCI-H661 = system: NCI-H661
Method in brief: as §1

PC-14 = system: PC-14
Method in brief: as §1

PC-3 [JPC-3] = system: PC-3 [JPC-3]
Method in brief: as §1

SK-MES-1 = system: SK-MES-1
Method in brief: as §1

UMC-11 = system: UMC-11
Method in brief: as §1

Compound `CCNC(=O)c1noc(-c2cc(C(C)C)c(O)cc2O)c1-c1ccc(CN2CCOCC2)cc1` [Luminespib] + CS(=O)(=O)CCNCc1ccc(-c2ccc3ncnc(Nc4ccc(OCc5cccc(F)c5)c(Cl)c4)c3c2)o1 [Lapatinib] (partner 2 µM) has a relative viability (ABC-1; first compound 0.002 µM) of 1.33, a relative viability (ABC-1; first compound 0.006325 µM) of 0.964 and a relative viability (ABC-1; first compound 0.02 µM) of 0.945. The relative viability (ABC-1; first compound 0.06325 µM) was 1.14, the relative viability (ABC-1; first compound 0.2 µM) was 0.517 and the relative viability (COR-L23; first compound 0.002 µM) was 1.22. It also gave a relative viability (COR-L23; first compound 0.006325 µM) of 0.945, a relative viability (COR-L23; first compound 0.02 µM) of 0.924 and a relative viability (COR-L23; first compound 0.06325 µM) of 0.0749. For the same compound, the relative viability (COR-L23; first compound 0.2 µM) was 0.0671, the relative viability (H3255; first compound 0.002 µM) was 0.245 and the relative viability (H3255; first compound 0.006325 µM) was 0.305. For the same compound, the relative viability (H3255; first compound 0.02 µM) was 0.234, the relative viability (H3255; first compound 0.06325 µM) was 0.233 and the relative viability (H3255; first compound 0.2 µM) was 0.25. It also gave a relative viability (HCC-15; first compound 0.002 µM) of 0.812, a relative viability (HCC-15; first compound 0.006325 µM) of 0.783 and a relative viability (HCC-15; first compound 0.02 µM) of 0.883. The relative viability (HCC-15; first compound 0.06325 µM) was 0.308, the relative viability (HCC-15; first compound 0.2 µM) was 0.136 and the relative viability (HCC-366; first compound 0.002 µM) was 1.07. The relative viability (HCC-366; first compound 0.006325 µM) was 1.05, the relative viability (HCC-366; first compound 0.02 µM) was 0.13 and the relative viability (HCC-366; first compound 0.06325 µM) was 0.0159. For the same compound, the relative viability (HCC-366; first compound 0.2 µM) was 0.0157, the relative viability (HCC-827; first compound 0.002 µM) was 0.184 and the relative viability (HCC-827; first compound 0.006325 µM) was 0.184. For the same compound, the relative viability (HCC-827; first compound 0.02 µM) was 0.172, the relative viability (HCC-827; first compound 0.06325 µM) was 0.235 and the relative viability (HCC-827; first compound 0.2 µM) was 0.185. The relative viability (LC-2-ad; first compound 0.002 µM) was 0.928, the relative viability (LC-2-ad; first compound 0.006325 µM) was 0.954 and the relative viability (LC-2-ad; first compound 0.02 µM) was 0.659. For the same compound, the relative viability (LC-2-ad; first compound 0.06325 µM) was 0.498, the relative viability (LC-2-ad; first compound 0.2 µM) was 0.0905 and the relative viability (LXF-289; first compound 0.002 µM) was 0.905. It also gave a relative viability (LXF-289; first compound 0.006325 µM) of 0.877, a relative viability (LXF-289; first compound 0.02 µM) of 1.02 and a relative viability (LXF-289; first compound 0.06325 µM) of 0.554. It also gave a relative viability (LXF-289; first compound 0.2 µM) of 0.115, a relative viability (NCI-H1437; first compound 0.002 µM) of 0.819 and a relative viability (NCI-H1437; first compound 0.006325 µM) of 0.748. For the same compound, the relative viability (NCI-H1437; first compound 0.02 µM) was 0.703, the relative viability (NCI-H1437; first compound 0.06325 µM) was 0.243 and the relative viability (NCI-H1437; first compound 0.2 µM) was 0.102. For the same compound, the relative viability (NCI-H1666; first compound 0.002 µM) was 0.717, the relative viability (NCI-H1666; first compound 0.006325 µM) was 0.709 and the relative viability (NCI-H1666; first compound 0.02 µM) was 0.585. The relative viability (NCI-H1666; first compound 0.06325 µM) was 0.718, the relative viability (NCI-H1666; first compound 0.2 µM) was 0.533 and the relative viability (NCI-H1975; first compound 0.002 µM) was 0.951. The relative viability (NCI-H1975; first compound 0.006325 µM) was 0.739, the relative viability (NCI-H1975; first compound 0.02 µM) was 0.291 and the relative viability (NCI-H1975; first compound 0.06325 µM) was 0.126. It also gave a relative viability (NCI-H1975; first compound 0.2 µM) of 0.113, a relative viability (NCI-H2009; first compound 0.002 µM) of 1.22 and a relative viability (NCI-H2009; first compound 0.006325 µM) of 0.814. For the same compound, the relative viability (NCI-H2009; first compound 0.02 µM) was 0.63, the relative viability (NCI-H2009; first compound 0.06325 µM) was 0.0682 and the relative viability (NCI-H2009; first compound 0.2 µM) was 0.0655. It also gave a relative viability (NCI-H2085; first compound 0.002 µM) of 0.854, a relative viability (NCI-H2085; first compound 0.006325 µM) of 0.793 and a relative viability (NCI-H2085; first compound 0.02 µM) of 0.482. It also gave a relative viability (NCI-H2085; first compound 0.06325 µM) of 0.373, a relative viability (NCI-H2085; first compound 0.2 µM) of 0.284 and a relative viability (NCI-H2087; first compound 0.002 µM) of 1.11. For the same compound, the relative viability (NCI-H2087; first compound 0.006325 µM) was 0.954, the relative viability (NCI-H2087; first compound 0.02 µM) was 0.726 and the relative viability (NCI-H2087; first compound 0.06325 µM) was 0.202. The relative viability (NCI-H2087; first compound 0.2 µM) was 0.174, the relative viability (NCI-H2228; first compound 0.002 µM) was 1.2 and the relative viability (NCI-H2228; first compound 0.006325 µM) was 0.808. For the same compound, the relative viability (NCI-H2228; first compound 0.02 µM) was 0.191, the relative viability (NCI-H2228; first compound 0.06325 µM) was 0.126 and the relative viability (NCI-H2228; first compound 0.2 µM) was 0.117. For the same compound, the relative viability (NCI-H23; first compound 0.002 µM) was 1.02, the relative viability (NCI-H23; first compound 0.006325 µM) was 1.1 and the relative viability (NCI-H23; first compound 0.02 µM) was 0.587. It also gave a relative viability (NCI-H23; first compound 0.06325 µM) of 0.139, a relative viability (NCI-H23; first compound 0.2 µM) of 0.112 and a relative viability (NCI-H661; first compound 0.002 µM) of 0.469. It also gave a relative viability (NCI-H661; first compound 0.006325 µM) of 0.464, a relative viability (NCI-H661; first compound 0.02 µM) of 0.35 and a relative viability (NCI-H661; first compound 0.06325 µM) of 0.324. It also gave a relative viability (NCI-H661; first compound 0.2 µM) of 0.208, a relative viability (PC-14; first compound 0.002 µM) of 0.383 and a relative viability (PC-14; first compound 0.006325 µM) of 0.267. For the same compound, the relative viability (PC-14; first compound 0.02 µM) was 0.247, the relative viability (PC-14; first compound 0.06325 µM) was 0.138 and the relative viability (PC-14; first compound 0.2 µM) was 0.116. It also gave a relative viability (PC-3 [JPC-3]; first compound 0.002 µM) of 0.486, a relative viability (PC-3 [JPC-3]; first compound 0.006325 µM) of 0.471 and a relative viability (PC-3 [JPC-3]; first compound 0.02 µM) of 0.404. The relative viability (PC-3 [JPC-3]; first compound 0.06325 µM) was 0.488, the relative viability (PC-3 [JPC-3]; first compound 0.2 µM) was 0.338 and the relative viability (SK-MES-1; first compound 0.002 µM) was 0.461. The relative viability (SK-MES-1; first compound 0.006325 µM) was 0.459, the relative viability (SK-MES-1; first compound 0.02 µM) was 0.407 and the relative viability (SK-MES-1; first compound 0.06325 µM) was 0.265. It also gave a relative viability (SK-MES-1; first compound 0.2 µM) of 0.159, a relative viability (UMC-11; first compound 0.002 µM) of 0.85 and a relative viability (UMC-11; first compound 0.006325 µM) of 0.834. For the same compound, the relative viability (UMC-11; first compound 0.02 µM) was 0.395, the relative viability (UMC-11; first compound 0.06325 µM) was 0.345 and the relative viability (UMC-11; first compound 0.2 µM) was 0.125.
